# Source: EP0289229A1, “Antiviral combinations” (THE WELLCOME FOUNDATION LIMITED, priority 1987, dated 1988)
# Experiments:
# [1] = tested on: herpes simplex type 1 (KOS strain); assay: Plaque reduction assay in Vero cells; format: cell-based; conditions: HSV-1 KOS, three days
# Protocol: Antiviral activity was determined using a plaque reduction assay. Petri plates were seeded with Vero cells which were then allowed to grow to confluency. Each plate was then infected with a fixed number of plaque forming units (abut 100-500) of herpes simplex type 1 (KOS strain). The inhibitors, either alone or in the indicated combinations, were dissolved to give the indicated concentration in minimal essential medium containing 2% heat inactivated fetal calf serum and 0.5% human immune serum globulin: One hour after infection the solutions (10 ml per plate) were added to the cultures. Three days later the cultures were formalin-fixed and stained with crystal violet, and the plaques were counted.
# [2] = tested on: Friend Leukemia Virus (FLV); assay: Anti-Friend Leukemia Virus plaque inhibition in FG-10 cells; format: cell-based; conditions: FG-10 cells infected with FLV; compound added one hour after infecting; 3 + 3 days incubation; read-out: IC50 (concentration giving 50% inhibition of plaques)
# Protocol: The enhancement of the Anti-Friend Leukemia Virus (FLV) activity of zidovudine by bacterial thymidine phosphorylase is shown in Table 1. FG-10 cells were used seeded on a plate one day before they were infected with FLV. One hour after infecting, known concentrations of the test compound or combination were added. The plates were incubated for 3 days, the media replaced with fresh McCoy's 5A media and incubated another 3 days.
SMILES,Average Plaque Count ([1]; Conc. 0.1 μM),Average Plaque Count ([1]; Conc. 0.25 μM),Average Plaque Count ([1]; Conc. 0.5 μM),Average Plaque Count ([1]; Conc. 1.0 μM),Average Plaque Count ([1]; Conc. 2.5 μM),Average Plaque Count ([1]; Conc. 5.0 μM),Average Plaque Count ([1]; Conc. 7.5 μM),Average Plaque Count ([1]; Conc. 10 μM),"inhibition at 0.1 µM ([1]; Human alphaherpesvirus 1, 72 h, Conc. 0.1 μM) [%]","inhibition at 0.25 µM ([1]; Human alphaherpesvirus 1, 72 h, Conc. 0.25 μM) [%]","inhibition at 0.5 µM ([1]; Human alphaherpesvirus 1, 72 h, Conc. 0.5 μM) [%]","inhibition at 1 µM ([1]; Human alphaherpesvirus 1, 72 h, Conc. 1.0 μM) [%]","inhibition at 2.5 µM ([1]; Human alphaherpesvirus 1, 72 h, Conc. 2.5 μM) [%]","inhibition at 5 µM ([1]; Human alphaherpesvirus 1, 72 h, Conc. 5.0 μM) [%]","inhibition at 7.5 µM ([1]; Human alphaherpesvirus 1, 72 h, Conc. 7.5 μM) [%]","inhibition at 10 µM ([1]; Human alphaherpesvirus 1, 72 h, Conc. 10 μM) [%]",IC50 [2] [nM]
"Nc1nc2c(ncn2COCCO)c(=O)[nH]1 [Acyclovir, 9-[(2-hydroxyethoxy)methyl]guanine]",316.5,298,290.5,230,182,88,54,34.5,11.6,16.7,19,35.8,49.2,75.4,84.9,90.4,–
"Cc1cn([C@H]2C[C@H](N=[N+]=[N-])[C@@H](CO)O2)c(=O)[nH]c1=O [Zidovudine, 3′-azido-3′-deoxythymidine]",–,–,–,–,–,–,–,–,–,–,–,–,–,–,–,–,5
